Laboratory results as given in US20260224588A1, “BENZODIAZEPINONE-DERIVED INHIBITORS OF EGFR AND HER2” (The Research Foundation for the State University of New York, priority 2023, published 2026).
“Also recorded” adds a separate entry of the source.

How the values were obtained:
AAK1 = target: T1, AAK1 (Homo sapiens, UniProt Q2M2I8); test: KINOMEscan; type: binding; settings: 1 μM of compound 4; read-out: POC
T1 construct: purchased Eurofins DiscoverX Corporation

AKT3 = AKT3 (Homo sapiens, UniProt Q9Y243); test: KINOMEscan; type: binding; settings: 1 μM of compound 4; read-out: POC
ALK = ALK (Homo sapiens, UniProt Q9UM73); test: KINOMEscan; type: binding; settings: 1 μM of compound 4; read-out: POC
CTK = CTK (Homo sapiens, UniProt P42679); test: KINOMEscan; type: binding; settings: 1 μM of compound 4; read-out: POC
EPHA7 = target: T2, EPHA7 (Homo sapiens, UniProt Q15375); test: KINOMEscan; type: binding; settings: 1 μM of compound 4; read-out: POC
T2 construct: purchased Eurofins DiscoverX (KINOMEscan service)

EPHA8 = target: T3, EPHA8 (Homo sapiens, UniProt P29322); test: KINOMEscan; type: binding; settings: 1 μM of compound 4; read-out: POC
T3 construct: purchased Eurofins DiscoverX (KINOMEscan service)

EPHB1 = target: T4, EPHB1 (Homo sapiens, UniProt P54762); test: KINOMEscan; type: binding; settings: 1 μM of compound 4; read-out: POC
T4 construct: purchased Eurofins DiscoverX (KINOMEscan service)

ERBB4 = target: T5, ERBB4 (Homo sapiens, UniProt Q15303); test: KINOMEscan; type: binding; settings: 1 μM of compound 4; read-out: POC
T5 construct: purchased Eurofins DiscoverX Corporation

ERK4 = target: T6, ERK4 (Homo sapiens, UniProt P31152); test: KINOMEscan; type: binding; settings: 1 μM of compound 4; read-out: POC
T6 construct: purchased Eurofins DiscoverX Corporation
T6 sequence (P31152 whole entry): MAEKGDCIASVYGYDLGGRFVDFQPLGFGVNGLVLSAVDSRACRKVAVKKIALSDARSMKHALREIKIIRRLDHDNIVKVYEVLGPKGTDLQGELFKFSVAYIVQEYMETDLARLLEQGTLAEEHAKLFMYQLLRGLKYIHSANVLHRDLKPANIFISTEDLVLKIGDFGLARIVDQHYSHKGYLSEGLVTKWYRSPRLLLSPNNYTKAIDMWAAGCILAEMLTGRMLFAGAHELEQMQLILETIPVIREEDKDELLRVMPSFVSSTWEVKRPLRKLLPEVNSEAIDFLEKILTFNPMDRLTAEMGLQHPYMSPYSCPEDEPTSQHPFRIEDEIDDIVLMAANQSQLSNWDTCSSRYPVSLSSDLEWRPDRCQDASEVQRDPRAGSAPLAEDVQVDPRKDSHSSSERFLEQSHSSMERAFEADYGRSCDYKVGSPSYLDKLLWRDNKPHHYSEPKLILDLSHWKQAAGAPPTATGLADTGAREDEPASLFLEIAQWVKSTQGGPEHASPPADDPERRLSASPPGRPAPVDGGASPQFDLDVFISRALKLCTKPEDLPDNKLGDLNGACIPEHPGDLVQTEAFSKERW

FLT3 = target: T7, FLT3 (Homo sapiens, UniProt P36888); test: KINOMEscan; type: binding; settings: 1 μM of compound 4; read-out: POC
T7 construct: purchased Eurofins DiscoverX Corporation

FLT4 = target: T8, FLT4 (Homo sapiens, UniProt P35916); test: KINOMEscan; type: binding; settings: 1 μM of compound 4; read-out: POC
T8 construct: purchased Eurofins DiscoverX Corporation

GRK3 = target: T9, GRK3 (Homo sapiens, UniProt P35626); test: KINOMEscan; type: binding; settings: 1 μM of compound 4; read-out: POC
T9 construct: purchased Eurofins DiscoverX Corporation

LOK = LOK (Homo sapiens, UniProt O94804); test: KINOMEscan; type: binding; settings: 1 μM of compound 4; read-out: POC
MARK2 = MARK2 (Homo sapiens, UniProt Q7KZI7); test: KINOMEscan; type: binding; settings: 1 μM of compound 4; read-out: POC
MAST1 = MAST1 (Homo sapiens, UniProt Q9Y2H9); test: KINOMEscan; type: binding; settings: 1 μM of compound 4; read-out: POC
Sequence of MAST1 (Q9Y2H9 whole entry): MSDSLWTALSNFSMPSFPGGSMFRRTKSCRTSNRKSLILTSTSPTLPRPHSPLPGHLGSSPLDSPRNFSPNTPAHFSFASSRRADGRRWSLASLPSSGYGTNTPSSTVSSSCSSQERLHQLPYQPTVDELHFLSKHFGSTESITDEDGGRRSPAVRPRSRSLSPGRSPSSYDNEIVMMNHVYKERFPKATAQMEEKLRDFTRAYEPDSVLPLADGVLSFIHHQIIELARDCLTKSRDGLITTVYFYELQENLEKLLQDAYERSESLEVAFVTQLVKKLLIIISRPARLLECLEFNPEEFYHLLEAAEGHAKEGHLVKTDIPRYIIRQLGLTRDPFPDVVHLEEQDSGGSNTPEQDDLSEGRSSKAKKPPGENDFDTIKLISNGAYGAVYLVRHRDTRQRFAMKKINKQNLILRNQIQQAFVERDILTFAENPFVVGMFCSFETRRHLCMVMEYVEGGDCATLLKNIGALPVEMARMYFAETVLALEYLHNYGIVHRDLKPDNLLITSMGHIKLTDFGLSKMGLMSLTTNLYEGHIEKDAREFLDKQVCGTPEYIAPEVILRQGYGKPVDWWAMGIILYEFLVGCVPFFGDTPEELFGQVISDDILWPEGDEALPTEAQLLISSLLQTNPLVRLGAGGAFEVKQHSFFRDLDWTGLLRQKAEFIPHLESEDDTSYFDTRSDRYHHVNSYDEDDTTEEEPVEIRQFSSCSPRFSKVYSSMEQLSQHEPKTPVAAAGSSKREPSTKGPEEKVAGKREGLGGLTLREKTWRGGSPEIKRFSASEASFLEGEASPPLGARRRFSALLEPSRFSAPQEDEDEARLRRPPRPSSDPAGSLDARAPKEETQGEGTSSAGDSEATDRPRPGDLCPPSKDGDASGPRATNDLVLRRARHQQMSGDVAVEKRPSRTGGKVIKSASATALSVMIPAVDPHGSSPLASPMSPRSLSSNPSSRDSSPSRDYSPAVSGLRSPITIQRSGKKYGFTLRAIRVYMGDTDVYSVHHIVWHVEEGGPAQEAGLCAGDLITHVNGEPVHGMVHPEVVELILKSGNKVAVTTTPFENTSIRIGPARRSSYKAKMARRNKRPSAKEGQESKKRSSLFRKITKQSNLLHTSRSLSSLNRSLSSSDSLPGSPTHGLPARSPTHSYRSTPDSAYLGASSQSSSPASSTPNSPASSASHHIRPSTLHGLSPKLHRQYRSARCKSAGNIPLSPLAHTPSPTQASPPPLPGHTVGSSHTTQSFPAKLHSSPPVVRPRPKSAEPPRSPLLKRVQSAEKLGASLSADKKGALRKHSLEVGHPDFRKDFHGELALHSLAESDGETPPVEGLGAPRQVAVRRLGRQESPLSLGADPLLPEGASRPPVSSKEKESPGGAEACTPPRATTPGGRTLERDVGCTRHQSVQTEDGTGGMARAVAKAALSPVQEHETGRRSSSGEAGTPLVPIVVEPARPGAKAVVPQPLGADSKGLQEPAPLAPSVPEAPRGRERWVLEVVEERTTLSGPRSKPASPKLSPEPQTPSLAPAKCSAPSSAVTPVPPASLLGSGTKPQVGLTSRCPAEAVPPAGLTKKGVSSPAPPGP

MEK2 = MEK2 (Homo sapiens, UniProt P36507); test: KINOMEscan; type: binding; settings: 1 μM of compound 4; read-out: POC
MELK = MELK (Homo sapiens, UniProt Q14680); test: KINOMEscan; type: binding; settings: 1 μM of compound 4; read-out: POC
MYLK = MYLK (Homo sapiens, UniProt Q15746); test: KINOMEscan; type: binding; settings: 1 μM of compound 4; read-out: POC
NEK11 = NEK11 (Homo sapiens, UniProt Q8NG66); test: KINOMEscan; type: binding; settings: 1 μM of compound 4; read-out: POC
PCTK2 = target: T10, PCTK2 (Homo sapiens, UniProt Q00537); test: KINOMEscan; type: binding; settings: 1 μM of compound 4; read-out: POC
T10 construct: purchased Eurofins DiscoverX Corporation (KINOMEscan)

PIK3CA = PIK3CA (Homo sapiens, UniProt P42336); test: KINOMEscan; type: binding; settings: 1 μM of compound 4; read-out: POC
PIK4CB = PIK4CB (Homo sapiens, UniProt Q9UBF8); test: KINOMEscan; type: binding; settings: 1 μM of compound 4; read-out: POC
PRP4 = PRP4 (Homo sapiens, UniProt Q13523); test: KINOMEscan; type: binding; settings: 1 μM of compound 4; read-out: POC
Sequence of PRP4 (Q13523 whole entry): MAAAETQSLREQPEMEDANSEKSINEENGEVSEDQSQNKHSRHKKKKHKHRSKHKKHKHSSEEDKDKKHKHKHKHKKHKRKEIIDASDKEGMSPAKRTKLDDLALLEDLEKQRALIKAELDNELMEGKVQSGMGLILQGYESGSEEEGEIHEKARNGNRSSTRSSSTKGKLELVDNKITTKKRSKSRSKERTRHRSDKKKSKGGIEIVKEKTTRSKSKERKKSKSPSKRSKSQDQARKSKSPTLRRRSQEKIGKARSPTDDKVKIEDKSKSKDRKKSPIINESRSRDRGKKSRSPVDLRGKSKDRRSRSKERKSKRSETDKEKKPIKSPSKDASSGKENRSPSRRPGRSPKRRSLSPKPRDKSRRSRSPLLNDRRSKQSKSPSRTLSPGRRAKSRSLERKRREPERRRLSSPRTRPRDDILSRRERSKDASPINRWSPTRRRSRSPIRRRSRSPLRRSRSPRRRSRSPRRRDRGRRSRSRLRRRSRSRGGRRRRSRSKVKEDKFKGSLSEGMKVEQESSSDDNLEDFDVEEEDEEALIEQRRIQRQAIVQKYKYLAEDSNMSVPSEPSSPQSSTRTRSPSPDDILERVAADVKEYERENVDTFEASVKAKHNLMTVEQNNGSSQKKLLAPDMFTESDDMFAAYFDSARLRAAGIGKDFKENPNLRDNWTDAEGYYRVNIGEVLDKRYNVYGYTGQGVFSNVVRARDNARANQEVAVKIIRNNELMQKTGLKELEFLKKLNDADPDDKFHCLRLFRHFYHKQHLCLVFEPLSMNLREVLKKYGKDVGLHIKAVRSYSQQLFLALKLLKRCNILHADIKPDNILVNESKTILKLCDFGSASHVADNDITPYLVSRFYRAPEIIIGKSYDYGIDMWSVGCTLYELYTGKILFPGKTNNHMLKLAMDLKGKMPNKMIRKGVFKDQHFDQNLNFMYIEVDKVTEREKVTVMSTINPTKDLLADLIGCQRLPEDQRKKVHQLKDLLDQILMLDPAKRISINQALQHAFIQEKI

SNRK = target: T11, SNRK (Homo sapiens, UniProt Q9NRH2); test: KINOMEscan; type: binding; settings: 1 μM of compound 4; read-out: POC
T11 construct: purchased Eurofins DiscoverX (KINOMEscan service)

TLK1 = target: T12, TLK1 (Homo sapiens, UniProt Q9UKI8); test: KINOMEscan; type: binding; settings: 1 μM of compound 4; read-out: POC
T12 construct: purchased Eurofins DiscoverX Corporation
T12 sequence (Q9UKI8 whole entry): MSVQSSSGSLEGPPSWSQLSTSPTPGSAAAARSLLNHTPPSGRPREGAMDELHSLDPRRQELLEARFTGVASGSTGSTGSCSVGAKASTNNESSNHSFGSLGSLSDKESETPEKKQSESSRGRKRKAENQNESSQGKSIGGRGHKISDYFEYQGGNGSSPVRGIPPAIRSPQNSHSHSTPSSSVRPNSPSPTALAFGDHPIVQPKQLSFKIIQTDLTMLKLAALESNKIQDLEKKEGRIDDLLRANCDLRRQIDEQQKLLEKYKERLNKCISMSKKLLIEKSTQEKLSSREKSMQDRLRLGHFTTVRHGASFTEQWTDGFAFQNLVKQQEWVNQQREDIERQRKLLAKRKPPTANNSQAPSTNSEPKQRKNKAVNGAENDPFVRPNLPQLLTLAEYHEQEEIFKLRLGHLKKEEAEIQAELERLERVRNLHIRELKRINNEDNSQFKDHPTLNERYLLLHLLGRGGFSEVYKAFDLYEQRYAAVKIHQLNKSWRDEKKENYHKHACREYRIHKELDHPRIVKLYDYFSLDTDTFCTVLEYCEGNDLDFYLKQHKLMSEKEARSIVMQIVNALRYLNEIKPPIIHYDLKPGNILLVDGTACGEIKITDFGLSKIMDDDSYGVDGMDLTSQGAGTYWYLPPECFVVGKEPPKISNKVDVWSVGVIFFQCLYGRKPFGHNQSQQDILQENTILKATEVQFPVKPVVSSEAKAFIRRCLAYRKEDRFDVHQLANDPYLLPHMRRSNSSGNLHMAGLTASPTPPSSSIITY

TRKC = target: T13, TRKC (Homo sapiens, UniProt Q16288); test: KINOMEscan; type: binding; settings: 1 μM of compound 4; read-out: POC
T13 construct: purchased Eurofins DiscoverX Corporation

TTK = target: T14, TTK (Homo sapiens, UniProt P33981); test: KINOMEscan; type: binding; settings: 1 μM of compound 4; read-out: POC
T14 construct: purchased Eurofins DiscoverX Corporation
T14 sequence (P33981 whole entry): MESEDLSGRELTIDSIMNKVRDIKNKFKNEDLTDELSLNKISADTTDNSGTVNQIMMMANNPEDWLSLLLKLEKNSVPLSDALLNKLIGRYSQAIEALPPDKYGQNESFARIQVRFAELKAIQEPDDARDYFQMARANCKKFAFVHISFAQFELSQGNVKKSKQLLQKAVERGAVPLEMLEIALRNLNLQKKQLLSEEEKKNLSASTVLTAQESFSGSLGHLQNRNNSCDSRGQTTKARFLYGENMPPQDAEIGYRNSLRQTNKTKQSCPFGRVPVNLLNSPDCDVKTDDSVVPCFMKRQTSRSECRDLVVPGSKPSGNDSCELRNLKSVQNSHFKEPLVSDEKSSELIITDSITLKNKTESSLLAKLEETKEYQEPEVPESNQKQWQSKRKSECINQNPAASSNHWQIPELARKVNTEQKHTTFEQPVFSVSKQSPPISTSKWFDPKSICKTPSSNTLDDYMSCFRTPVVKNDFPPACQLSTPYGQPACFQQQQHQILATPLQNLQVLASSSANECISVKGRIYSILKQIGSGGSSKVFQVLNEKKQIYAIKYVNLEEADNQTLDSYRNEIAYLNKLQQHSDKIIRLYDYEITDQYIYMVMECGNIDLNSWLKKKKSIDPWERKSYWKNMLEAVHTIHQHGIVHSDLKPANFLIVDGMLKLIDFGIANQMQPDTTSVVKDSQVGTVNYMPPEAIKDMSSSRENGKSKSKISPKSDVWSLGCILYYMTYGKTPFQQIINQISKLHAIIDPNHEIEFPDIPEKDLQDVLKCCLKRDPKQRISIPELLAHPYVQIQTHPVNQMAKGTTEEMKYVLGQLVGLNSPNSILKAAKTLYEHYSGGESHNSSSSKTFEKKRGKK

[1] = target: T15, TYK2(JH1domain-catalytic) (Homo sapiens, UniProt P29597); test: KINOMEscan; type: binding; settings: 1 μM of compound 4; read-out: POC
T15 construct: TYK2(JH1domain-catalytic); purchased Eurofins DiscoverX
T15 sequence (P29597 897-1176 limits assumed): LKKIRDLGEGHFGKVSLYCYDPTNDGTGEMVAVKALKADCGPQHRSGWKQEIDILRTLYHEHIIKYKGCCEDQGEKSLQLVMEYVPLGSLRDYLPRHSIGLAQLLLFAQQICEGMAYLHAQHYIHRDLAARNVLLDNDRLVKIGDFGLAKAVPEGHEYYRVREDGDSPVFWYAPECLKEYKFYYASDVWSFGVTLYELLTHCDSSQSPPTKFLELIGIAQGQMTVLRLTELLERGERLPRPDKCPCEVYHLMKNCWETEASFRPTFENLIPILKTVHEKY

VRK2 = target: T16, VRK2 (Homo sapiens, UniProt Q86Y07); test: KINOMEscan; type: binding; settings: 1 μM of compound 4; read-out: POC
T16 construct: purchased Eurofins DiscoverX

YSK4 = target: T17, YSK4 (Homo sapiens, UniProt Q56UN5); test: KINOMEscan; type: binding; settings: 1 μM of compound 4; read-out: POC
T17 construct: purchased Eurofins DiscoverX

[2] = test system: EGFR (delE746-A750) in HCC827 cells; test: Western blotting of EGFR phosphorylation; type: cell-based, human; settings: 6 hours treatment
Description: FIG. 2. […] All experiments performed after 6 hours treatments of inhibitors or DMSO controls and Western blots are representative of at least three independent experiments.
Western blotting. Cells were collected and lysed with lysis buffer (5M NaCl, 1M TRIS pH 8.0, 10% SDS, 10% Triton X-100 and a tablet of protease inhibitors) and processed for Western blotting analysis. Primary antibodies used; phospho-EGFR (Tyr1068; #2234, 1:1,000), EGFR (#4267; 1:1,000), phospho-AKT (Ser473; #4060, 1:1,000), AKT (#9272, 1:1,000), phospho-ERK1/2 (Thr202/Tyr204; #4370, 1:1,000), and ERK1/2 (#4695, 1:1,000) antibodies; were purchased from Cell Signaling Technology. Secondary Goat anti-rabbit IgG starbright blue 700 and Anti-tubulin hFAB Rhodamine Tubulin were purchased from Bio-rad.

Question: For `C=CC(=O)Nc1ccc(OC)c(Nc2cc(-c3[nH]c(CC)nc3-c3cccc(NC(=O)c4cccc5c4NC(=O)c4ccccc4N5)c3)ccn2)c1` [Compound 4, N-(3-(5-(2-((5-Acrylamido-2-methoxyphenyl)amino)pyridin-4-yl)-2-ethyl-1H-imidazol-4-yl)phenyl)-11-oxo-10,11-dihydro-5H-dibenzo[b,e][1,4]diazepine-9-carboxamide], which remaining binding at 1 µM (AAK1) is on record?
Answer: 100%

Question: And the remaining binding at 1 µM (AKT3)?
Answer: 100%

Question: What about the remaining binding at 1 µM (ALK) of the same compound?
Answer: 100%

Question: And the remaining binding at 1 µM (CTK)?
Answer: 54%

Question: And the remaining binding at 1 µM (EPHA7)?
Answer: 100%

Question: What about the remaining binding at 1 µM (EPHA8) of the same compound?
Answer: 98%

Question: And the remaining binding at 1 µM (EPHB1)?
Answer: 92%

Question: What about the remaining binding at 1 µM (ERBB4) of the same compound?
Answer: 4.9%

Question: What about the remaining binding at 1 µM (ERK4) of the same compound?
Answer: 100%

Question: What about the remaining binding at 1 µM (FLT3) of the same compound?
Answer: 100%

Question: And the remaining binding at 1 µM (FLT4)?
Answer: 100%

Question: And the remaining binding at 1 µM (GRK3)?
Answer: 100%

Question: And the remaining binding at 1 µM (LOK)?
Answer: 49%

Question: What about the remaining binding at 1 µM (MARK2) of the same compound?
Answer: 85%

Question: And the remaining binding at 1 µM (MAST1)?
Answer: 100%

Question: What about the remaining binding at 1 µM (MEK2) of the same compound?
Answer: 100%

Question: And the remaining binding at 1 µM (MELK)?
Answer: 100%

Question: What about the remaining binding at 1 µM (MYLK) of the same compound?
Answer: 84%

Question: And the remaining binding at 1 µM (NEK11)?
Answer: 100%

Question: What about the remaining binding at 1 µM (PCTK2) of the same compound?
Answer: 100%

Question: What about the remaining binding at 1 µM (PIK3CA) of the same compound?
Answer: 70%

Question: What about the remaining binding at 1 µM (PIK4CB) of the same compound?
Answer: 93%

Question: And the remaining binding at 1 µM (PRP4)?
Answer: 46%

Question: And the remaining binding at 1 µM (SNRK)?
Answer: 82%

Question: And the remaining binding at 1 µM (TLK1)?
Answer: 87%

Question: What about the remaining binding at 1 µM (TRKC) of the same compound?
Answer: 87%

Question: And the remaining binding at 1 µM (TTK)?
Answer: 72%

Question: What about the remaining binding at 1 µM [1] of the same compound?
Answer: 91%

Question: What about the remaining binding at 1 µM (VRK2) of the same compound?
Answer: 100%

Question: And the remaining binding at 1 µM (YSK4)?
Answer: 88%

Question: What about the “EGFR phosphorylation (Western blot)” value [2] of the same compound?
Answer: similarly active; also recorded: effectively ablates EGFR (delE746-A750) phosphorylation
